Values of other authors as cited in patent US9968546B2, “Topical composition for skin treatment to reduce lines and wrinkles of the face and body using a dual DNA repair mechanism to address damage caused by aging and ultra-violet induced damage to the skin with combination of skin turgor enhancement compounds” (priority 2015, dated 2018).
Blank lines part the entries; values can stand above or below the compound they belong to.

What was measured:
[1] = clinically, versus regular Vitamin E
melanin synthesis = details: concentration of 0.1%

Compound: Tocotrienol
strength and effectiveness at repairing skin damage relative to regular Vitamin E [1]: 40-50 times

Compound: CCCCCCCCC(CCCCCC)C(=O)OC[C@H](OC(=O)C(CCCCCC)CCCCCCCC)[C@H]1OC(=O)C(OC(=O)C(CCCCCC)CCCCCCCC)=C1OC(=O)C(CCCCCC)CCCCCCCC (stereo partly drawn) [tetrahexyldecyl ascorbate]
reduction of melanin synthesis (melanin synthesis): 80%
8-OHdG induced by UV-A radiation (8-OHdG): decreases
p53 expression induced by UV-B radiation (p53 expression): decreases

tyrosinase-inhibition activity relative to Kojic acid (tyrosinase; versus Kojic acid): 25 times
tyrosinase-inhibition activity relative to ascorbic acid (tyrosinase; versus ascorbic acid): 75 times
Compound: CC1(C)C=Cc2c(ccc3c2OC[C@@H](c2ccc(O)cc2O)C3)O1 [Glabridin]
